Laboratory results reported in US4184849A, “Mixed agglutination” (Technicon Instruments Corporation, priority 1977, dated 1980).

How the values were obtained:
Assay type in all cases: binding
sheep anti-digoxin serum [1] = assay: assay of digoxin by mixed agglutination of Ab-latex and conjugate-latex, selective optical counting of unagglutinated particles; details: Table 3
sheep anti-digoxin serum [2] = assay: Example 3: digoxin mixed agglutination with equal-sized or different-sized latex
Procedure: (§1) Latex particles (0.09μ diameter, polystyrene, Dow Chemical Co.) as a 10% by weight suspension as supplied) was diluted 20-fold in dilute glycine-buffered saline (dGBS-20 mM glycine, 34 mM NaCl, pH 9) containing 0.2 mg/ml of the Rivanol-soluble fraction (prepared by the method of Stastny and Horejsi, Clin. Chim. Acta (1961), 6, 782) of sheep anti-digoxin serum, and incubated at room temperature for 30 minutes. 1/10th volume of 10 mg bovine serum albumin (bSA) per ml. dGBS was then added (to ensure that the latex was completely coated with protein), and after a further 30 minutes incubation, the coated latex was washed twice by centrifugation and resuspended in dGBS. Finally, the coated latex was resuspended as a 0.5% suspension in GBS (0.1 M glycine, 0.17 M NaCl, pH 9) containing 1 mg bSA/ml.
(§2) The same procedure was followed as in (a) except that the latex used was of 1.1μ diameter and incubation was performed at an Ag-conjugate concentration of 4μg/ml, followed by the addition of 1/10 volume of 10 mg/ml transferrin. The Ag-conjugate was prepared by the oxidative coupling of digoxin and ethylene glycol followed by reductive coupling of this complex to the protein. 50 mg digoxin dissolved in 2 ml absolute alcohol was incubated for 25 minutes with 2 ml 0.1 M NalO4, then 60 μl of ethylene glycol was added for a further 5 minutes incubation. This reaction mixture was then added to a solution of 60 mg human transferrin in 2 ml water, brought to pH 9.5 by addition of 5% Na2 CO3, and incubated for 45 minutes. 30 mg NaBH4 freshly dissolved in 2 ml water was added and incubation was continued for 3 hours. At the end of this time, the pH of the reaction mixture was reduced to 6.5 by addition of 1 M HCOOH to destroy any unreacted NaBH4, and after a further hour of incubation, 1 M NH4 OH was added to raise the pH to 8.5, and the preparation was dialysed against running water for 2 days at 4° C. (all other operations were at room temperature).
(§3) Sera used for the assay of digoxin were first heated with acid to reduce serum intereference. 25 μl of serum was heated to 56° C. for 10 minutes with 25 μl of 0.1 N HCl, then made alkaline by the addition of 10 μl 2 M Na2 CO3. To these heated sera were added 25 μl of Ab-latex (diluted 1:10 with GBS containing 1 mg bSA/ml) and 25 μl of conjugate-latex (diluted 1:4 with GBS containing 1 mg human transferrin/ml). They were then incubated in vertically-positioned tubes agitated horizontally on a shaking incubator for 15 minutes at room temperature. At the end of this time, the tube contents were diluted with 5 ml GBS and after a further 20-fold dilution with GBS containing 0.01% Tween 20, passed through the flowcell of a Technicon Autocounter at 2 ml/min. The relative numbers of unagglutinated (monomer) latex particles in each sample were determined (as also may be the relative numbers of agglutinated particles) by selective optical counting.
Example 1 was repeated using latex particles of the same (as opposed to different) size and the following results were obtained: […]

sheep anti-digoxin serum [3] = assay: latex immunoassay of digoxin read by turbidimetry (optical density at 400 nm)
sheep anti-digoxin serum [4] = assay: assay of digoxin by mixed agglutination of Ab-latex and conjugate-latex, selective optical counting of unagglutinated particles; details: Table 1
Procedure: This Example illustrates the assay of digoxin.
as §1, §2, §3
In the selective optical counting of particles, the amount of light scattered by a particle is dependent on the size of the particle; in turn, the electronic impulse generated in the photocell will be proportional to the size of the particle, and particles of different sizes may be counted separately. Table 2 illustrates the improvement in precision of determination (by providing a more extended range for the standard curve) that may be obtained by counting only unagglutinated particles (monomers) as opposed to counting all particles (total). […]

[5] = system: rabbit anti-thyroxine (T4) serum; assay: assay of thyroxine by mixed agglutination; details: maximum = Ag-latex alone
Procedure: This Example illustrates the assay of thyroxine. […] After incubation at 0° for 1 hour, 250 μl of 25% ethanolamine in PBS was added, and the incubation prolonged for 30 minutes. The latex was then washed twice by centrifugation and resuspension in fresh PBS (1 ml each time), and then dialysed for 16 hours at 4° against 1 l PBS. […] The method of this latex preparation was exactly the same as for the assay of digoxin (Example 1) except that the Ab was from rabbit anti-thyroxine (T4) serum. […] The maximum value in this case was for the Ag-latex alone, all the above values being found in the presence of Ag-latex as well.

[6] = latex immunoassay of hPL, comparison of counting methods; details: 2.5 ngs hPL/ml
From the text: In the selective optical counting of particles, the amount of light scattered by a particle is dependent on the size of the particle; in turn, the electronic impulse generated in the photocell will be proportional to the size of the particle, and particles of different sizes may be counted separately. Table 2 illustrates the improvement in precision of determination (by providing a more extended range for the standard curve) that may be obtained by counting only unagglutinated particles (monomers) as opposed to counting all particles (total). The Table also illustrates the great increase in sensitivity that may be realized by calculating the ratio of unagglutinated to agglutinated particles (monomer/polymer ratio). By counting particles at all, an increase in sensitivity and precision may be realized by comparison with other methods of end-point determination.

Molecule: C[C@H]1O[C@@H](O[C@H]2[C@@H](O)C[C@H](O[C@H]3[C@@H](O)C[C@H](O[C@H]4CC[C@@]5(C)[C@H](CC[C@@H]6[C@@H]5C[C@@H](O)[C@]5(C)[C@@H](C7=CC(=O)OC7)CC[C@]65O)C4)O[C@@H]3C)O[C@@H]2C)C[C@H](O)[C@@H]1O [Digoxin, digoxin]
- Particle count (monomers) (sheep anti-digoxin serum [1]; digoxin 0.31 ng/ml in serum): 40 percentage of that found in th
- Particle count (monomers) (sheep anti-digoxin serum [1]; digoxin 0.625 ng/ml in serum): 44 percentage of that found in th
- Particle count (monomers) (sheep anti-digoxin serum [1]; digoxin 1.25 ng/ml in serum): 63 percentage of that found in th
- Particle count (monomers) (sheep anti-digoxin serum [1]; digoxin 2.5 ng/ml in serum): 90 percentage of that found in th
- Particle count (monomers) (sheep anti-digoxin serum [1]; digoxin 5.0 ng/ml in serum): 100 percentage of that found in th
- Unagglutinated Particles (as % of maximum) (sheep anti-digoxin serum [2]; Different-sized latex, digoxin 1 ng/ml in serum): 30%
- Unagglutinated Particles (as % of maximum) (sheep anti-digoxin serum [2]; Different-sized latex, digoxin 4 ng/ml in serum): 76%
- Unagglutinated Particles (as % of maximum) (sheep anti-digoxin serum [2]; Different-sized latex, digoxin 10 ng/ml in serum): 100%
- Unagglutinated Particles (as % of maximum) (sheep anti-digoxin serum [2]; Equal-sized latex, digoxin 1 ng/ml in serum): 78%
- Unagglutinated Particles (as % of maximum) (sheep anti-digoxin serum [2]; Equal-sized latex, digoxin 4 ng/ml in serum): 95%
- Unagglutinated Particles (as % of maximum) (sheep anti-digoxin serum [2]; Equal-sized latex, digoxin 10 ng/ml in serum): 100%
- Turbidity (sheep anti-digoxin serum [3]; digoxin 0.31 ng/ml in serum): 74 percentage of that found in th
- Turbidity (sheep anti-digoxin serum [3]; digoxin 0.625 ng/ml in serum): 71 percentage of that found in th
- Turbidity (sheep anti-digoxin serum [3]; digoxin 1.25 ng/ml in serum): 82 percentage of that found in th
- Turbidity (sheep anti-digoxin serum [3]; digoxin 2.5 ng/ml in serum): 100 percentage of that found in th
- Turbidity (sheep anti-digoxin serum [3]; digoxin 5.0 ng/ml in serum): 100 percentage of that found in th
- Unagglutinated Particles (as % of maximum) (sheep anti-digoxin serum [4]; digoxin 0.31 ng/ml in serum): 40%
- Unagglutinated Particles (as % of maximum) (sheep anti-digoxin serum [4]; digoxin 0.625 ng/ml in serum): 44%
- Unagglutinated Particles (as % of maximum) (sheep anti-digoxin serum [4]; digoxin 1.25 ng/ml in serum): 63%
- Unagglutinated Particles (as % of maximum) (sheep anti-digoxin serum [4]; digoxin 2.5 ng/ml in serum): 90%
- Unagglutinated Particles (as % of maximum) (sheep anti-digoxin serum [4]; digoxin 5.0 ng/ml in serum): 100%

Molecule: N[C@@H](Cc1cc(I)c(Oc2cc(I)c(O)c(I)c2)c(I)c1)C(=O)O [T4, thyroxine]
- Particle concentration (% maximum) ([5]; 10 ng T4/ml serum): 51.5%
- Particle concentration (% maximum) ([5]; 50 ng T4/ml serum): 59.5%
- Particle concentration (% maximum) ([5]; 200 ng T4/ml serum): 89%

B1: hPL: human placental lactogen (protein, UniProt P0DML2 27-217, looked up)
Chorionic somatomammotropin …: VQTVPLSRLFDHAMLQAHRAHQLAIDTYQEFEETYIPKDQKYSFLHDSQTSFCFSDSIPTPSNMEETQQKSNLELLRISLLLIESWLEPVRFLRSMFANNLVYDTSDSDDYHLLKDLEEGIQTLMGRLEDGSRRTGQILKQTYSKFDTNSHNHDALLKNYGLLYCFRKDMDKVETFLRMVQCRSVEGSCGF
- Monomer/polymer ratio [6]: 81 percentage of that obtained in
